Values of other authors as cited in paper PMC11170759, “Advancing Parkinson’s Disease Diagnostics: The Potential of Arylpyrazolethiazole Derivatives for Imaging α-Synuclein Aggregates” (ACS Omega, 2024).

Tested on: α-synuclein aggregates
Parameters: method as in PMID 34577548
Conditions: literature ligand of Figure 1; cited from earlier work

In the case of `c1ccc(-c2ccc(C3CC(c4ccc5c(c4)OCO5)=NN3)o2)cc1` (stereo not shown) [8b], the “reduction of ThT fluorescence” value is listed as 94%.
